These results are taken from patent US5824647A, “Chemotactic wound healing peptides” (priority 1995, dated 1998).

The subject of assay [1] is human peripheral blood monocytes. In words: Monocyte chemotaxis in modified Boyden chambers. The arrangement: key to Monocyte Migration: NE = No Effect. In kind it is cell-based. The source says:
Human peripheral blood neutrophils and monocytes, isolated from whole blood using standard techniques may also be used in the chemotaxis assays, in a manner similar to infant foreskin fibroblasts, to measure the chemotactic activity of the peptides towards inflammatory cells. Such cells may also be maintained in supplemented MEM as above, to which 5-10% FCS may be added. When using neutrophils and monocytes, instead of fibroblasts, the polycarbonate filters used in the modified Boyden chambers had pore sizes of 2 and 3 microns, respectively. As above, all assays were carried out in quadruplicate.
The following 7-mer peptides (peptides 368-374, corresponding to amino acids 368-374 of human TGF-β1): VYYVGRK (SEQ ID NO. 1), LYYIGKT (SEQ ID NO. 2), LYYVGRT (SEQ ID NO. 3), IYYVGRN (SEQ ID NO. 4) and IYYVGRT (SEQ ID NO. 5) were synthesized by the Merrifield technique, purified by HPLC, and tested at different concentrations in the same assay for their ability to stimulate chemotaxis of human peripheral blood monocytes in vitro modified Boyden chambers.

The subject of assay [2] is fibroblasts. In words: HLA-DR, fibroblast effects. In kind it is cell-based. On the set-up: key: NE = No Effect. The conditions noted are these: Table II summary.
Assay [3] concerns infant foreskin fibroblasts. Nature of the assay: Fibroblast chemotaxis in modified Boyden chambers (incl. checkerboard and deactivation studies). In kind it is cell-based, human. On the set-up: key to FIBROBLAST EFFECTS Migration: NE = No Effect. The method, then:
Target cells used in in vitro chemotaxis assays were infant foreskin fibroblasts obtained by establishing monolayer cultures from explants of tissue. Cells were maintained in Eagle's minimum essential medium (MEM) supplemented with non-essential amino acids, antibiotics, 50 ug/ml ascorbic acid, and 9% fetal calf serum (FCS). Cells were passaged by trypsinization every 3-5 days.
Infant foreskin fibroblasts were harvested from monolayer culture by gentle trypsinization, washed twice in serum-free Eagles's MEM and adjusted to a final concentration of 250,000 cells/ml. The cell suspension (0.4 ml) was added to the upper compartments of blind well modified Boyden chemotaxis chambers. The peptides of the invention being assayed for chemotactic activity were solubilized in glycylglycine (0.015M) buffered NaCl (0.14M), pH 7.2, hereinafter referred to as GGBS, and diluted 50% with serum-free MEM. Test substances were added to the lower compartment of the chemotaxis chambers. Gelatin-treated polycarbonate filters (8 micron pore size) were interposed between the lowest compartment and the upper cell compartment. Loaded chambers were incubated at 37° C. in a humidified atmosphere containing 5% CO2 for 150 minutes. After incubation, the chambers were disassembled, the filters removed, stained with hematoxylin, and mounted on glass cover slips. Fibroblast chemotaxis was quantitated by counting the number of fibroblasts in 20 oil immersion fields (OIF) that migrated and adhered to the lower surface of each filter. Samples were tested in quadruplicate and results are expressed as mean number of fibroblasts per 20 OIF±standard error of the mean (SEM). Chemotaxis neutralization studies were performed by adding TGF-β1 or fibronectin to the upper cell compartment and testing for effects on fibroblast migration to the TGF-β peptides.
Zigmond-Hirsch checkerboard analysis (Zigmond & Hirsch, J. Exptl. Med. 137:387, 1972) was performed to determine whether the 7-mer peptide 368-374 (Val Tyr Tyr Val Gly Arg Lys) induced chemotaxis of fibroblasts, monocytes and neutrophils.
Deactivation studies were utilized to determine whether the peptides of the invention containing the 7-mer peptide amino acid sequence induced chemotaxis via cellular receptors and mechanisms utilized by intact TGF-β.

In assay [4] the test system is fibroblasts. In words: Hyaluronate production by fibroblasts. The assay is classed as cell-based. On the set-up: key to FIBROBLAST EFFECTS Hyaluronate: NE = No Effect. The following applies: Table II summary.
For assay [5], the system named is infant foreskin fibroblasts. Nature of the assay: Collagen production by fibroblasts (modified Peterofsky-Diegelman assay). On the set-up: key to FIBROBLAST EFFECTS Collagen: NE = No Effect. In kind it is cell-based, human. The protocol:
The peptides of the invention were also found to stimulate collagen production by fibroblasts. Collagen production by fibroblasts in response to the peptides of the present invention was measured utilizing a modified Peterofsky-Diegelman assay. The assay is used to determine whether the peptides of the invention stimulate or inhibit collagen production by fibroblasts.
Low passage (4-12 subpassages) infant foreskin fibroblasts were plated out at a density of 10^5 cells/well in Falcon 3008 multiwell plates in complete maintenance medium containing 10% FCS. After cells reached confluency (72 hr), the medium was changed daily for 3 days, each time being replaced with serum-free maintenance medium containing fresh ascorbic acid. Samples (50 μl) were added to triplicate wells containing 450 μl serum-free MEM supplemented with fresh ascorbic acid and [^3 H]-proline (sp. act. 20 Ci/mmole), but no non-essential amino acids. After an additional 24 hr of culture, supernatants were reacted with protease-free bacterial collagenase to digest all collagen. Similar aliquots of unreacted supernatants and bacterial collagenase-treated supernatants were precipitated with cold 10% trichloroacetic acid (TCA) and were centrifuged for 5 minutes in a Beckman microfuge. Aliquots of the supernatants, after TCA precipitated proteins were pelleted, were placed in vials containing Hydrofluor and then were counted in a scintillation counter. CPM from TCA precipitated supernatants not reacted with bacterial collagenase were subtracted from each culture. The resulting CPM was a reflection of the collagen produced by that culture.
A modified Peterofsky-Diegelmann assay was used to screen peptide samples for their ability to stimulate or inhibit collagen production. Low passage (4-12 subpassages) infant foreskin fibroblast were plated out at a density of 10^5 cells/well of Falcon 3008 multiwell plates in complete maintenance medium containing 10% FCS. After cells reached confluency (72 hr) the medium was changed daily for 3 days, each time being replaced with serum-free maintenance medium containing fresh ascorbic acid. Samples ([…]) were added to triplicate wells containing […] serum free MEM supplemented with fresh ascorbic acid and [^3 H]-proline (sp. act. 20 Ci/mmole), but no non-essential amino acids. After an additional 24 hours of culture, supernatants were reacted with protease-free bacterial collagenase to digest all collagen. Similar aliquots of unreacted supernatants and bacterial collagenase-treated supernatants were precipitated with cold 10% trichloroacetic acid (TCA) and were centrifuged for 5 minutes in a Beckman microfuge. Aliquots of the supernatants, after TCA precipitated proteins were pelleted, were placed in vials containing Hydrofluor and then were counted in a scintillation counter. CPM from TCA precipitated supernatants not reacted with bacterial collagenase were subtracted from each culture. The resulting CPM was a reflection of the collagen produced by that culture.
Collagen production was measured following administration of the various 7-mer peptides 368-374 (SEQ ID NOs. 1-5) to fibroblasts. Peptides […] (SEQ ID NO. 1), LYYIGKT (SEQ ID NO. 2), LYYVGRT (SEQ ID NO. 3), IYYVGRN (SEQ ID NO. 4) and IYYVGRT (SEQ ID NO. 5) were synthesized by the Merrifield technique, purified by HPLC, and tested at different concentrations in the same assay for their ability to stimulate production of collagen in confluent cultures of infant foreskin fibroblasts. Collagen production was measured by incorporation of [^3 H]proline into collagenase-sensitive protein. All samples were tested in triplicate, and values represent the mean of triplicate determinations. Data are expressed as "% stimulation" of collagen production relative to control production in cultures with plain culture medium only added. […]

The subject of assay [6] is infant foreskin fibroblasts. The assay is described as above. The assay is classed as cell-based, human. The conditions noted are these: [3H]proline incorporation into collagenase-sensitive protein; listed as LYYIGRT.
Setting [7] is: peptide in lower compartment of modified Boyden chamber.

Turning to “280-339: synthetic peptide 280-339, corresponds to the amino terminal portion of TGF-β1 monomer (ALDTNYCFSSTEKNCCVRQLYIDFRKDLGWKWIHEPKGYHANFCLGPCPYIWSLDTQYSK; printed: Ala Leu Asp Thr Asn Tyr Cys Phe Ser Ser Thr Glu Lys Asn Cys Cys Val Arg Gln Leu Tyr Ile Asp Phe Arg Lys Asp Leu Gly Trp Lys Trp Ile His Glu Pro Lys Gly Tyr His Ala Asn Phe Cys Leu Gly Pro Cys Pro Tyr Ile Trp Ser Leu Asp Thr Gln Tyr Ser Lys)”, the “Monocyte Migration” value in assay [1] (Table II summary) was “NE”. In addition, in assay [2], the “FIBROBLAST EFFECTS HLA-DR” value is given as “NE”. In addition, the “FIBROBLAST EFFECTS Migration” value in assay [3] (Table II summary) is recorded as “NE”. Besides, the “FIBROBLAST EFFECTS Hyaluronate” value in assay [4] is “NE”. Besides, the “FIBROBLAST EFFECTS Collagen” value in assay [5] (Table II summary) is “NE”.
As to LYYIGKT [7-mer peptide 368-374 homolog], in assay [1] (setting [7]), the “monocyte chemotaxis / migration (in words)” value is listed as “induced monocyte chemotaxis at all of the concentrations tested”. The “fibroblast chemotaxis / migration (in words)” value in assay [3] (setting [7]) is “induced fibroblast chemotaxis at all of the concentration tested”. Moreover, the “collagen production by fibroblasts (in words)” value in assay [5] ([3H]proline incorporation into collagenase-sensitive protein) is recorded as “stimulated collagen production to some degree”; in assay [6] it was “stimulated collagen production”.
